Measured values as given in paper PMC10946398 (Journal of Medicinal Chemistry, 2024).
Several values for one entry are separate records, joined by “and”; a condition that tells them apart may be missing. Equal values may be shown once.

experiment: parallel artificial membrane permeability assay; assay type: in vitro ADME; conditions: 100 μM, phosphate buffer pH 6.4, 17 h, 37 °C, 150 rpm, triplicates

| SMILES | PAMPA −LogPe |
| --- | --- |
| CC(C)C[C@@H]1NC(=O)[C@H](C)N(C)C(=O)[C@H](Cc2ccccc2)NCc2ccc([nH]2)CNC1=O [14d, (5S,8S,11S)-11-Benzyl-5-isobutyl-8,9-dimethyl-1^1H-3,6,9,12-tetraaza-1(2,5)-pyrrolacyclotridecaphane-4,7,10-trione] | 5.01 |
| CC(C)C[C@@H]1NC(=O)CN(C)C(=O)[C@H](Cc2ccccc2)NCc2ccc([nH]2)CNC1=O [14b, (5S,11S)-11-Benzyl-5-isobutyl-9-methyl-1^1H-3,6,9,12-tetraaza-1(2,5)-pyrrolacyclotridecaphane-4,7,10-trione] | 5.89 and 5.89 ± 0.08 |
| CC(C)C[C@@H]1NC(=O)[C@H](C)N(C)C(=O)[C@H](Cc2ccccc2)NCc2cc(cn2C)CNC1=O [17d, (5S,8S,11S,Z)-11-Benzyl-5-isobutyl-1^1,8,9-trimethyl-1^1H-3,6,9,12-tetraaza-1(2,4)-pyrrolacyclotridecaphane-4,7,10-trione] | 6.61 ± 0.07 |
| CC(C)C[C@H]1C(=O)NCc2ccc([nH]2)CN[C@@H](Cc2ccccc2)C(=O)N[C@@H](C)C(=O)N1C [14c, (5S,8S,11S)-11-Benzyl-5-isobutyl-6,8-dimethyl-1^1H-3,6,9,12-tetraaza-1(2,5)-pyrrolacyclotridecaphane-4,7,10-trione, 1H-Benzo[d][1,2,3]triazol-1-ol] | 5.12 |
| CC(C)C[C@@H]1NC(=O)[C@H](C)N(C)C(=O)[C@H](Cc2ccccc2)NCc2cc(c[nH]2)CNC1=O [16d, (5S,8S,11S,Z)-11-Benzyl-5-isobutyl-8,9-dimethyl-1^1H-3,6,9,12-tetraaza-1(2,4)-pyrrolacyclotridecaphane-4,7,10-trione] | 7.53 |
| CC(C)C[C@@H]1NC(=O)[C@H](C)NC(=O)[C@H](Cc2ccccc2)NCc2ccc([nH]2)CNC1=O [14a, (5S,8S,11S)-11-Benzyl-5-isobutyl-8-methyl-1^1H-3,6,9,12-tetraaza-1(2,5)-pyrrolacyclotridecaphane-4,7,10-trione, 1H-Benzo[d][1,2,3]triazol-1-ol] | 7.72 |
| CC(C)C[C@@H]1NC(=O)CN(C)C(=O)[C@H](Cc2ccccc2)NCc2ccc(n2C)CNC1=O [15b, (5S,11S)-11-Benzyl-5-isobutyl-1^1,9-dimethyl-1^1H-3,6,9,12-tetraaza-1(2,5)-pyrrolacyclotridecaphane-4,7,10-trione] | 5.93 |
| CC(C)C[C@@H]1NC(=O)[C@H](C)N(C)C(=O)[C@H](Cc2ccccc2)NCc2ccc(n2C)CNC1=O [15d, (5S,8S,11S)-11-Benzyl-5-isobutyl-1^1,8,9-trimethyl-1^1H-3,6,9,12-tetraaza-1(2,5)-pyrrolacyclotridecaphane-4,7,10-trione] | 6.30 |
| CC(C)C[C@@H]1NC(=O)CN(C)C(=O)[C@H](Cc2ccccc2)NCc2cc(c[nH]2)CNC1=O [16b, (5S,11S,Z)-11-Benzyl-5-isobutyl-9-dimethyl-1^1H-3,6,9,12-tetraaza-1(2,4)-pyrrolacyclotridecaphane-4,7,10-trione] | 6.76 |
| CC(C)C[C@@H]1NC(=O)CN(C)C(=O)[C@H](Cc2ccccc2)NCC2=CC=C(CNC1=O)O2 [18b, (5S,11S)-11-Benzyl-5-isobutyl-9-methyl-3,6,9,12-tetraaza-1(2,5)-furanacyclotridecaphane-4,7,10-trione] | 5.88 and 5.88 ± 0.04 |
| CC(C)C[C@@H]1NC(=O)[C@H](C)NC(=O)[C@H](Cc2ccccc2)NCC2=CC=C(CN(C)C1=O)O2 [19a, (5S,8S,11S)-11-Benzyl-5-isobutyl-3,8-dimethyl-3,6,9,12-tetraaza-1(2,5)-furanacyclotridecaphane-4,7,10-trione] | 5.71 and 5.71 ± 0.03 |
| CC(C)C[C@@H]1NC(=O)[C@H](C)NC(=O)[C@H](Cc2ccccc2)N(C)Cc2ccc([nH]2)CNC1=O [14e, (5S,8S,11S)-11-Benzyl-5-isobutyl-8,12-dimethyl-1^1H-3,6,9,12-tetraaza-1(2,5)-pyrrolacyclotridecaphane-4,7,10-trione, 1H-Benzo[d][1,2,3]triazol-1-ol] | 5.11 |
